Test results published in article PMC8000724, “Trans-Epithelial Transport, Metabolism, and Biological Activity Assessment of the Multi-Target Lupin Peptide [sequence] (P5) and Its Metabolite [sequence] (P5-Met)” (Nutrients, 2021).

How the values were obtained:
[1] = test system: differentiated Caco-2 cells (AP membrane peptidases); experiment: Metabolites of P5 produced by Caco-2 cell peptidases, MS analysis of AP solutions; assay type: in vitro ADME, human; design: key to Metabolite of P5 identified in the AP compartment: Mixture / Metabolite of P5 identified in the AP compartment: Alone: x, detected; n.d., not detected
Experimental: Prior to experiments, the cell monolayer integrity and differentiation were checked by TEER measurement as described in detail above. Peptide trans-epithelial passage was assayed in differentiated Caco-2 cells in transport buffer solution (137 mM NaCl, 5.36 mM KCl, 1.26 mM CaCl2, and 1.1 mM MgCl2, 5.5 mM glucose) according to previously described conditions. In order to reproduce the pH conditions existing in vivo in the small intestinal mucosa, the apical (AP) solutions were maintained at pH 6.0 (buffered with 10 mM morpholinoethane sulfonic acid), and the basolateral (BL)solutions were maintained at pH 7.4 (buffered with 10 mM […]). Prior to transport experiments, cells were washed twice with 500 µL PBS containing Ca^++ and Mg^++. Peptide transportation by mature Caco-2 cells was assayed by loading the AP compartment with P5 alone, in mixture with […] (P3) and […] (P7), and/or P5-met (500 μM) in the AP transport solution (500 µL) and the BL compartment with the BL transport solution (700 µL). The plates were incubated at 37 °C and the BL solutions were collected at different time points (i.e., 15, 30, 60, 90, and 120 min) and replaced with fresh solutions pre-warmed at 37 °C. All BL and AP solutions collected at the end of the transport experiment were stored at −80 °C prior to analysis. Three independent transport experiments were performed, each in duplicate. In order to assess the involvement of transcytotic process in peptides passage, parallel transport experiments were performed in the presence of 500 nM wortmannin in both the AP and BL compartment, over 60 min incubation time.
The medium collected at the end of transport experiments from AP and BL chambers (500 µL and 700 µL, respectively) were freeze-dried and residues were solubilized in HPLC water (100 µL). Samples were desalted with C18 resin ZipTip by using 80% ACN, 0.1% FA as eluent (Millipore Corporation, Bedford, MA, USA). Each sample was lyophilized under speed-vacuum for 5 h at 30°C and re-dissolved in 50 μL (0.1% formic acid), before MS analysis. Purified BL samples were analyzed on a SL IT mass spectrometer interfaced with a HPLC- Chip Cube source (Agilent Technologies, Palo Alto, CA, USA). Data were processed with MSD Trap control 4.2, and Data analysis 4.2 version (Agilent Technologies, Palo Alto, CA, USA). The chromatographic separation was performed using a 1200 HPLC system equipped with a binary pump. […] Specifically, The monitored MRM transitions of P5-met were from the mono-charged precursor ion [M^+H]^+ (m/z 882.43) to product-ions m/z 678.3 and 407.1, respectively. […]

[2] = test system: HepG2 cells; experiment: Fluorescent LDL uptake by HepG2 cells; assay type: cell-based, human; conditions: mean ± SD
Experimental: HepG2 cells (3 × 10^4/well) were seeded in 96-well plates and kept in complete growth medium for 2 days before treatment. The third day, cells were washed with PBS and then starved overnight (O/N) in DMEM without FBS and antibiotics. After starvation, they were treated with 4.0 μg/mL PCSK9 and 4.0 μg/mL PCSK9 + P5 and P5-met peptides (50.0 µM), and vehicle (H2O) for 2 h with at 37 °C under 5% CO2 atmosphere. At the end of the treatment, the culture medium was replaced with 50 μL/well LDL-DyLight™ 550 working solution (Cayman Chemical Company, Ann Arbor, MI, USA) prepared in DMEM without FBS and antibiotics. The cells were additionally incubated for 2 h at 37 °C and then the culture medium was aspirated and replaced with PBS (100 μL/well). The degree of LDL uptake was measured using the Synergy H1 fluorescent plate reader (Winooski, VT, USA) (excitation and emission wavelengths 540 and 570 nm, respectively). Fluorescent LDL-uptake was finally assessed following optimized protocol.

H-LPKHSDAD-OH [Peptide P5-met]
Spectral Intensity of the metabolite in the AP compartment ([1]; Caco-2, AP compartment, end of incubation 120 min, used as measure of metabolite abundance): 1.21 × 10^7 | Metabolite of P5 identified in the AP compartment: Alone ([1]; P5 incubated alone (500 μM), Caco-2, end of incubation 120 min): x | Metabolite of P5 identified in the AP compartment: Mixture ([1]; P5 incubated in mixture with P3 and P7 (500 μM each), Caco-2, end of incubation 120 min): x | Ability of HepG2 cells to absorb extracellular LDL versus the control ([2]; HepG2, 50 µM, fluorescent LDL-DyLight 550, without added PCSK9): 181.2 ± 40.1% | LDL uptake by HepG2 cells restored, co-incubation with PCSK9 ([2]; peptide 50 µM + PCSK9 4 µg/mL, 2 h, % of untreated cells): 104.1 ± 8.5%
